What all share (assay): HLA class II peptide-binding assay (competitive ELISA)
On the technique in general: ELISA stands for enzyme-linked immunosorbent assay.

For one experiment, the target named is DRB1*0301 (Homo sapiens, UniProt P01903+P01911, A100K/A102G/A103R/A169T/F55Y/I96L/K41T/L162R/M171V/P40S/Q125H/Q178H/Q39Y/R42S/S66N/T106N/T262R/W38E/Y61H). The settings on record: immunopurified HLA, reference peptide IC50 423 nM, ratio ≤20 high affinity, 20–200 moderate affinity.
For another experiment, the target named is DRB1*1501 (Homo sapiens, UniProt P01903+P01911). The settings on record: immunopurified HLA, reference peptide IC50 775 nM, ratio ≤20 high affinity, 20–200 moderate affinity.
The next experiment concerns the target DRB1*0101 (Homo sapiens, UniProt P01903+P01911, A100R/D57E/F55L/F60I/F76Y/I96L/L162R/M171V/P40L/Q125E/R42F/V115G/Y59C). The settings on record: immunopurified HLA, reference peptide IC50 3 nM, ratio ≤20 high affinity, 20–200 moderate affinity.
For the next experiment, the target named is DRB1*0401 (Homo sapiens, UniProt P01903+P01911, A100K/A169T/F76Y/I96L/K127E/L162R/M171V/N62H/P40V/Q125Y/R42H/S133A/S149N/S66Y/V115G/V209L/W38E). The settings on record: immunopurified HLA, reference peptide IC50 8 nM, ratio ≤20 high affinity, 20–200 moderate affinity.
For the next experiment, the system named is DRB4. Set-up: species or system human. The settings on record: DRB4; competitive ELISA, immunopurified HLA; reference peptide IC50 8 nM; ratio ≤20 high affinity, 20–200 moderate affinity.
Another experiment relates to DRB5. On the set-up: species or system human. As to conditions: DRB5; competitive ELISA, immunopurified HLA; reference peptide IC50 7 nM; ratio ≤20 high affinity, 20–200 moderate affinity.
In the next experiment the target is DRB1*0701 (Homo sapiens, UniProt P01903+P01911, A100R/A102G/A103Q/D57E/D86V/E43K/F76Y/K127E/L162R/M171V/P40G/Q125H/Q99D/R33Q/R42Y/R54Q/S133A/S66F/T210M/V115G/Y107V/Y59L/Y89S). As to conditions: immunopurified HLA, reference peptide IC50 5 nM, ratio ≤20 high affinity, 20–200 moderate affinity.
The target of a further experiment is DRB1*1101 (Homo sapiens, UniProt P01903+P01911, A100R/A169T/A87E/I96F/K41T/L162R/M171V/P40S/Q125H/Q178H/Q39Y/Q99D/R42S/S66Y/T262R/V115G/W38E). As to conditions: immunopurified HLA, reference peptide IC50 50 nM, ratio ≤20 high affinity, 20–200 moderate affinity.
Another experiment deals with DRB3. On the set-up: species or system human. The settings on record: DRB3; competitive ELISA, immunopurified HLA; reference peptide IC50 60 nM; ratio ≤20 high affinity, 20–200 moderate affinity.
The target of another experiment is DRB1*1301 (Homo sapiens, UniProt P01903+P01911, A100E/A169T/K41T/L162R/M171V/P40S/Q125H/Q178H/Q39Y/Q99D/R42S/S66N/T262R/W38E/Y61H). The settings on record: immunopurified HLA, reference peptide IC50 208 nM, ratio ≤20 high affinity, 20–200 moderate affinity.

Consider “GQRVVFIQPSPVRDHY [pC5, Can f 1 peptide p81–96]”, for which the “relative binding ratio (IC50 of the test peptide divided by IC50 of the reference peptide)” value on DRB1*0301 is given as 28; on DRB1*1501, 7; on DRB1*0101, 1; at DRB1*0401, 101; in the experiment with DRB4, 1 054; in the experiment on DRB5, 3. The “relative binding ratio (IC50 of the test peptide divided by IC50 of the reference peptide)” value at DRB1*0701 is listed as 61; at DRB1*1101, 179; in the experiment on DRB3 it was over 167; on DRB1*1301 it was 33.

Take “ALEDFEKAAGARGLST [pTL8, Tear lipocalin peptide p126–141]”: the “relative binding ratio (IC50 of the test peptide divided by IC50 of the reference peptide)” value at DRB1*0301 is recorded as over 236; at DRB1*1501, over 13; on DRB1*0101, 3; on DRB1*0401 it was 85; with DRB4 it was > 1 179; with DRB5 it was 22. Besides, the “relative binding ratio (IC50 of the test peptide divided by IC50 of the reference peptide)” value on DRB1*0701 is 1 440; on DRB1*1101, over 200; in the experiment on DRB3 it was over 167; at DRB1*1301 it was over 481.

Take “ALEDFREFSRAKGLNQ [pC8, Can f 1 peptide p125–140]”: the “relative binding ratio (IC50 of the test peptide divided by IC50 of the reference peptide)” value at DRB1*0301 is on record as over 236; at DRB1*1501, over 13; at DRB1*0101 it was 155; on DRB1*0401, 189; with DRB4, > 1 179; in the experiment with DRB5, 101. The “relative binding ratio (IC50 of the test peptide divided by IC50 of the reference peptide)” value is listed as 71 at DRB1*0701, 2 at DRB1*1101, over 167 in the experiment with DRB3 and 245 at DRB1*1301.

“HYIFYCEGELHGKPVR [pTL6, Tear lipocalin peptide p96–111]”: the “relative binding ratio (IC50 of the test peptide divided by IC50 of the reference peptide)” value at DRB1*0301 was over 236; at DRB1*1501, 5; on DRB1*0101, 31; on DRB1*0401, 3; with DRB4, 121; with DRB5 it was 16. The “relative binding ratio (IC50 of the test peptide divided by IC50 of the reference peptide)” value at DRB1*0701 is listed as 2 222; at DRB1*1101 it was 3; in the experiment on DRB3, over 167; on DRB1*1301 it was over 481.

Consider “PGKYTADGGKHVAYII [pTL4, Tear lipocalin peptide p74–89]”, for which the “relative binding ratio (IC50 of the test peptide divided by IC50 of the reference peptide)” value is on record as over 236 at DRB1*0301; over 13 on DRB1*1501; 17 at DRB1*0101; 31 at DRB1*0401; > 1 179 in the experiment on DRB4; 433 in the experiment on DRB5. Further, the “relative binding ratio (IC50 of the test peptide divided by IC50 of the reference peptide)” value at DRB1*0701 is 65; at DRB1*1101, 0.2; with DRB3 it was 2; on DRB1*1301, over 481.

Turning to “ESILIPRQSETCSPGSD [pTL9, Tear lipocalin peptide p142–158]”, the “relative binding ratio (IC50 of the test peptide divided by IC50 of the reference peptide)” value is over 236 at DRB1*0301; over 13 at DRB1*1501; 569 on DRB1*0101; > 1 260 at DRB1*0401; > 1 179 in the experiment with DRB4; > 1 443 with DRB5. The “relative binding ratio (IC50 of the test peptide divided by IC50 of the reference peptide)” value on DRB1*0701 was > 1 874; at DRB1*1101 it was over 200; in the experiment with DRB3, over 167; on DRB1*1301, over 481.

For the sequence “HYILYCEGELHGRQIR [pC6, Can f 1 peptide p95–110]”, the “relative binding ratio (IC50 of the test peptide divided by IC50 of the reference peptide)” value at DRB1*0301 was 14; at DRB1*1501, 7; on DRB1*0101 it was 48; at DRB1*0401, 91; in the experiment on DRB4, 62; with DRB5, 50. Moreover, the “relative binding ratio (IC50 of the test peptide divided by IC50 of the reference peptide)” value on DRB1*0701 is 644; at DRB1*1101, 78; in the experiment on DRB3, over 167; on DRB1*1301, 40.

In the case of “KPDSVTPMILKAQKGGNL [pC2, Can f 1 peptide p31–48]”, the “relative binding ratio (IC50 of the test peptide divided by IC50 of the reference peptide)” value is listed as 1 at DRB1*0301; over 13 at DRB1*1501; 141 at DRB1*0101; 72 on DRB1*0401; > 1 179 with DRB4; 144 in the experiment on DRB5. The “relative binding ratio (IC50 of the test peptide divided by IC50 of the reference peptide)” value on DRB1*0701 was > 1 874; on DRB1*1101, 11; in the experiment with DRB3 it was 1; on DRB1*1301, 26.

Source of the values: paper PMC4038554, “Human CD4^+ T Cell Responses to the Dog Major Allergen Can f 1 and Its Human Homologue Tear Lipocalin Resemble Each Other” (PLoS ONE, 2014).
